Legend:
Type in all cases: in vivo
[1] = test system: Myzus persicae (Green Peach Aphid); assay: Example B6: Activity against Myzus persicae (green peach aphid), sprayed sunflower leaf discs; details: foliar, 144 h, application rate of 200 ppm, aphid population of mixed ages on sunflower leaf discs, 6 days after infestation
Procedure: Example B6: Activity Against Myzus persicae (Green Peach Aphid)
Sunflower leaf discs were placed on agar in a 24-well microtiter plate and sprayed with aqueous test solutions prepared from 10′000 ppm DMSO stock solutions. After drying, the leaf discs were infested with an aphid population of mixed ages. The samples were assessed for mortality 6 days after infestation.

[2] = test system: Nilaparvata lugens (Brown Plant Hopper); assay: Example B12: Activity against Nilaparvata lugens (brown plant hopper), larvicide, systemic into water; details: 168 h, application rate of 12.5 ppm, systemic into nutritive solution, rice plants, N3 nymphs, 7 days after infestation
Procedure: Example B12: Activity Against Nilaparvata lugens (Brown Plant Hopper) Larvicide, Systemic into Water
Rice plants cultivated in a nutritive solution were treated with the diluted test solutions into nourishing cultivation system. 1 day after application plants were infested with ˜20 N3 nymphs. 7 days after infestation samples were assessed for mortality and growth regulation.

[3] = test system: Diabrotica balteata (Corn Root Worm); assay: Example B2: Activity against Diabrotica balteata (corn root worm), sprayed maize sprouts; details: 96 h, application rate of 200 ppm, L2 larvae on maize sprouts, 4 days after infestation, read-out: effect in at least one of the two categories (mortality or growth inhibition)
Procedure: Example B2: Activity Against Diabrotica balteata (Corn Root Worm)
Maize sprouts placed onto an agar layer in 24-well microtiter plates were treated with aqueous test solutions prepared from 10′000 ppm DMSO stock solutions by spraying. After drying, the plates were infested with L2 larvae (6 to 10 per well). The samples were assessed for mortality and growth inhibition in comparison to untreated samples 4 days after infestation.

[4] = test system: Tetranychus urticae (Two-Spotted Spider Mite); assay: Example B10: Activity against Tetranychus urticae (two-spotted spider mite), sprayed bean leaf discs; details: foliar, 192 h, application rate of 200 ppm, mixed population (mobile stages) on bean leaf discs, 8 days after infestation
Procedure: Example B10: Activity Against Tetranychus urticae (Two-Spotted Spider Mite)
Bean leaf discs on agar in 24-well microtiter plates were sprayed with aqueous test solutions prepared from 10′000 ppm DMSO stock solutions. After drying the leaf discs were infested with a mite population of mixed ages. The samples were assessed for mortality on mixed population (mobile stages) 8 days after infestation.

[5] = test system: Myzus persicae (Green Peach Aphid); assay: Example B7: Activity against Myzus persicae (green peach aphid), roots of pea seedlings in test solution; details: 144 h, test rate of 24 ppm, roots of infested pea seedlings in test solution, 6 days
Procedure: Example B7: Activity Against Myzus persicae (Green Peach Aphid)
Roots of pea seedlings infested with an aphid population of mixed ages were placed directly in the aqueous test solutions prepared from 10′000 DMSO stock solutions. The samples were assessed for mortality 6 days after placing seedlings in test solutions.

[6] = test system: Carpocapsa (Cydia) pomonella (Codling Moth); assay: Example B15: Activity against Carpocapsa (Cydia) pomonella (codling moth), larvicide, feeding/contact; details: 336 h, application rate of 12.5 ppm, L1 larvae on sprayed diet cubes, 14 days after infestation, read-out: effect in at least one of the two categories (mortality or growth inhibition)
Procedure: Example B15: Activity Against Carpocapsa (Cydia) pomonella (Codling Moth), Larvicide, Feeding/Contact
Diet cubes coated with paraffin were sprayed with diluted test solutions in an application chamber. After drying off the treated cubes (10 replicates) were infested with 1 L1 larvae. Samples were incubated at 26-27° C. and checked 14 days after infestation for mortality and growth inhibition.

[7] = test system: Bemisia tabaci (Cotton White Fly); assay: Example B1: Activity against Bemisia tabaci (cotton white fly), sprayed cotton leaf discs; details: foliar, 144 h, application rate of 200 ppm, adult white flies on cotton leaf discs, 6 days after incubation
Procedure: Example B1: Activity Against Bemisia tabaci (Cotton White Fly)
Cotton leaf discs were placed on agar in 24-well microtiter plates and sprayed with aqueous test solutions prepared from 10′000 ppm DMSO stock solutions. After drying the leaf discs were infested with adult white flies. The samples were checked for mortality 6 days after incubation.

[8] = test system: Plutella xylostella (Diamond Back Moth); assay: Example B8: Activity against Plutella xylostella (diamond back moth), L2 larvae, artificial diet; details: 120 h, application rate of 200 ppm, 5 days after infestation, read-out: effect in at least one of the two categories (mortality or growth inhibition)
Procedure: Example B8: Activity Against Plutella xylostella (Diamond Back Moth)
24-well microtiter plates with artificial diet were treated with aqueous test solutions prepared from 10′000 ppm DMSO stock solutions by pipetting. After drying, the plates were infested with L2 larvae (10 to 15 per well). The samples were assessed for mortality and growth inhibition in comparison to untreated samples 5 days after infestation.

[9] = test system: Spodoptera littoralis (Egyptian Cotton Leaf Worm); assay: Example B9: Activity against Spodoptera littoralis (Egyptian cotton leaf worm), sprayed cotton leaf discs; details: foliar, 72 h, application rate of 200 ppm, L1 larvae on cotton leaf discs, 3 days after infestation
Procedure: Example B9: Activity Against Spodoptera littoralis (Egyptian Cotton Leaf Worm)
Cotton leaf discs were placed onto agar in 24-well microtiter plates and sprayed with aqueous test solutions prepared from 10′000 ppm DMSO stock solutions. After drying the leaf discs were infested with five L1 larvae. The samples were assessed for mortality, anti-feeding effect, and growth inhibition in comparison to untreated samples 3 days after infestation. Control of Spodoptera littoralis by a test sample is given when at least one of the categories mortality, anti-feedant effect, and growth inhibition is higher than the untreated sample.

[10] = test system: Euschistus heros (Neotropical Brown Stink Bug); assay: Example B3: Activity against Euschistus heros (neotropical brown stink bug), sprayed soybean leaf; details: 120 h, application rate of 200 ppm, N-2 nymphs on soybean leaf, 5 days after infestation, read-out: effect in at least one of the two categories (mortality or growth inhibition)
Procedure: Example B3: Activity Against Euschistus heros (Neotropical Brown Stink Bug)
Soybean leaf on agar in 24-well microtiter plates were sprayed with aqueous test solutions prepared from 10′000 ppm DMSO stock solutions. After drying the leaf were infested with N-2 nymphs. The samples were assessed for mortality and growth inhibition in comparison to untreated samples 5 days after infestation.

[11] = test system: Nilaparvata lugens (Brown Plant Hopper); assay: Example B11: Activity against Nilaparvata lugens (brown plant hopper), larvicide, feeding/contact; details: 168 h, application rate of 50 ppm, N3 nymphs on sprayed rice plants, 7 days after the treatment
Procedure: Example B11: Activity Against Nilaparvata lugens (Brown Plant Hopper) Larvicide, Feeding/Contact
Rice plants were treated with the diluted test solutions in a spray chamber. After drying plants were infested with ˜20 N3 nymphs. 7 days after the treatment samples were assessed for mortality and growth regulation.

CCS(=O)(=O)c1cc(OC(C)(C)C#N)cnc1-c1nc2cc(C(F)(F)F)n(OC)c(=O)c2n1C [Compound P5, 2-[[5-ethylsulfonyl-6-[5-methoxy-3-methyl-4-oxo-6-(trifluoromethyl)imidazo[4,5-c]pyridin-2-yl]-3-pyridyl]oxy]-2-methyl-propanenitrile]
≥ 80%: mortality at 200 ppm [1] | mortality at 12.5 ppm [2] | percent effect (mortality or growth inhibition) at 200 ppm [3] | mortality at 200 ppm [4] | mortality at 24 ppm [5] | percent effect (mortality or growth inhibition) at 12.5 ppm [6] | mortality at 200 ppm [7] | percent effect (mortality or growth inhibition) at 200 ppm [8] | percent control (mortality, anti-feedant effect or growth inhibition) at 200 ppm [9] | percent effect (mortality or growth inhibition) at 200 ppm [10]

CCS(=O)(=O)c1cc(OC(C)(C)C#N)c(C)nc1-c1nc2cc(C(F)(F)F)nnc2n1C [Compound P11, 2-[[5-ethylsulfonyl-2-methyl-6-[7-methyl-3-(trifluoromethyl)imidazo[4,5-c]pyridazin-6-yl]-3-pyridyl]oxy]-2-methyl-propanenitrile]
≥ 80%: mortality at 200 ppm [1] | mortality at 12.5 ppm [2] | percent effect (mortality or growth inhibition) at 200 ppm [3] | mortality at 24 ppm [5] | percent effect (mortality or growth inhibition) at 12.5 ppm [6] | mortality at 200 ppm [7] | percent effect (mortality or growth inhibition) at 200 ppm [8] | percent control (mortality, anti-feedant effect or growth inhibition) at 200 ppm [9] | percent effect (mortality or growth inhibition) at 200 ppm [10] | mortality at 50 ppm [11]
